Laboratory results from paper PMC4819177, “The rational search for selective anticancer derivatives of the peptide Trichogin GA IV: a multi-technique biophysical approach” (Scientific Reports, 2016).
pEC50: −log10 of the molar value. “Also recorded” adds a separate entry of the source. Square brackets hold non-standard residues; d marks the D form. Peptide text beside a SMILES is read from it. * marks the point of attachment. TOAC = CC1(C)CC(N)(C(=O)O)CC(C)(C)N1[O]; Leu(ol) = CC(C)C[C@H](N)CO; Octanoyl = CCCCCCCC(=O)*; Api = NC1(C(=O)O)CCNCC1; Aib = CC(C)(N)C(=O)O

Experiments:
[1] = tested on: S. aureus; details: relative to TG; cited from earlier work
[2] = tested on: T67 human glioma cell line; assay type: cell-based; details: MTT, 24 h exposure; average error about ±2 μM
Experimental: (§1) We studied the effect of TG and its analogues on normal (HDF) and transformed (T67 and HeLa) cells. The cellular viability was assessed after 24 hours of exposure to the peptides by the MTT assay (Table 1).
(§2) Culture media, foetal bovine serum (FBS) and antibiotics were purchased from Carlo Erba Dasit Group. The T67 human glioma cell line was derived by Lauro et al.[49] from a World Health Organization (WHO) Grade III gemistocytic astrocytoma. Human dermal fibroblasts (HDF) were obtained by ATCC. HDF were cultured in Fibroblast Basal Medium (ATCC) supplemented with 10% FBS. T67 and HeLa cells were cultured in Dulbecco’s modified Eagle’s medium (MMedical) supplemented with 10% FBS, 100 UI/ml penicillin, 100 μg/ml streptomycin, and 40 μg/ml gentamycin, and kept in a 5% CO2 atmosphere at 37 °C, with saturating humidity. Cell viability and number were measured by trypan blue exclusion method.
(§3) Cytotoxicity of peptides was estimated using a MTT assay. All the chemicals used for this assay have been purchased by sigma Aldrich and used without further purification. T67, HeLa and HDF cells were seeded in 24-well plates at 1 × 10^5 cells/well. Experiments were performed after 24 h of incubation at 37 °C in 5% CO2. After this time cells were washed and treated for 24 h with different concentrations of peptides; the cells are then incubated for 60 mins with 300 μM of MTT in culture medium. The absorbance of each well was measured at 450 nm with a spectrofluorometer (Wallac Victor multilabel counter; Perkin-Elmer Inc., Boston, MA, USA). Data are reported as the mean ± standard deviation of at least three independent experiments.

[3] = tested on: human dermal fibroblasts (HDF); assay type: cell-based; details: MTT, 24 h exposure; average error about ±2 μM
Experimental: as §1, §2, §3

[4] = tested on: HeLa cells; assay type: cell-based, human; details: MTT, 24 h exposure; average error about ±2 μM
Experimental: as §1, §2, §3

[5] = tested on: HeLa cells; experiment: EPR of TOAC-labelled peptides with intact HeLa cells; assay type: binding, human; details: 125 μM, 25 nmol per million cells, 15–20 min incubation
Excerpt: (§4) EPR spectroscopy has been performed on TOAC-labelled analogues to determine the amount of peptide bound to the membrane and to evaluate the peptide dynamics. […] We studied all analogues in buffer solution and in POPC SUV, the same systems used for CD spectroscopy; four selected analogues (see cytotoxicity assay paragraph) were also studied interacting with a suspension of intact cells of the three cell lines. […] Additionally, from the simulations, we determined the value of the Azz hyperfine component that gives an indication of the polarity of the environment. All EPR spectra and simulations are reported in the Supplementary Information (Figs S1–S4), while in Fig. 4, we report an overview of the experiments. In the top part of the figure, we show the spectra of [TOAC^1] TG in buffer solution (blue), in SUV (red), and interacting with T67 cells (magenta). In the bottom part, we show the spectra of the other three peptides, representative of the different degrees of biological activity, interacting with intact T67 cells. […]
(§5) Methanol, 99.9%, spectrophotometric grade, [4-(2-hydroxyethyl)-1-piperazinyl]ethanesulfonic acid (HEPES), and PBS buffer (NaCl 137 mM, KCl 2.7 mM, Na2HPO4 10 mM, KH2PO4 1.8 mM, pH 7.4) were purchased from Sigma-Aldrich. […] The spectra were recorded after 15–20 minutes of incubation of the peptide to the cell suspension. […]

[6] = tested on: HDF cells; experiment: EPR of TOAC-labelled peptides with intact HDF cells; assay type: binding, human; details: 125 μM, 25 nmol per million cells, 15–20 min incubation
Excerpt: as §4, §5

[7] = tested on: T67, HeLa and HDF cells; experiment: MTT cytotoxicity assay, summary over the three cell lines; assay type: cell-based, human; details: 24 h
Experimental: as §1, §3

[8] = EPR of TOAC-labelled peptides in POPC SUV; assay type: binding; details: P:L 1:100, 78 μM peptide
Excerpt: as §4, with “[TOAC^1]” for “[TOAC^1] TG in buffer solution (blue), in SUV (red), and interacting with T67 cells (magenta). In the bottom part, we show the spectra of the other three peptides, representative of the different degrees of biological activity, interacting with intact T67 cells.”
The EPR spectra of all TOAC-labelled peptides recorded in POPC SUV are very similar to each other, and are shown in the Supplementary Information, Fig. S1. […]
(§6) Methanol, 99.9%, spectrophotometric grade, [4-(2-hydroxyethyl)-1-piperazinyl]ethanesulfonic acid (HEPES), and PBS buffer (NaCl 137 mM, KCl 2.7 mM, Na2HPO4 10 mM, KH2PO4 1.8 mM, pH 7.4) were purchased from Sigma-Aldrich. […] The spectra were recorded after 15–20 minutes of incubation of the peptide to the cell suspension. […] The microwave frequency was measured by a frequency counter, HP5342A. […]

[9] = tested on: T67 cells; experiment: EPR of TOAC-labelled peptides with intact T67 cells; assay type: binding, human; details: 125 μM, 25 nmol per million cells, 15–20 min incubation
Excerpt: as §4, §5

[10] = tested on: suspensions of intact cells (T67, HeLa, HDF); experiment: EPR binding to suspensions of intact cells, summary; design: species or system human; details: over the three cell lines
Excerpt: The EPR spectra of all peptides interacting with suspensions of intact cells (Fig. S3) show two spectral components: the three sharp lines characteristic of peptides in aqueous solution and the broad lineshape of peptides bound to the membrane. Therefore all peptides are not fully bound to the cell membranes. The presence of two well-defined spectral components implies that the exchange of the peptides between the two phases (membrane and aqueous solution) is slow on the EPR timescale, with a frequency less than ≈1 MHz. The amount of peptide bound to the membrane is obtained from the relative contribution of each spectral component to the total area of the simulated spectrum. A detailed example of the procedure is reported in the Supplementary Information, Fig. S4. The spectra show small variations in binding for the same peptide in different cell lines, and large variations for different peptides in the same cell line. Among the analogues, [TOAC^1, Lys^6] TG and [TOAC^1, Leu^4] […]
as §6

Row | Compound | antibacterial activity [1] | pEC50 [2] | pEC50 [3] | pEC50 [4] | % membrane-bound peptide HeLa [5] [%] | % membrane-bound peptide HDF [6] [%] | cytotoxicity / selectivity in words [7] | % membrane-bound peptide POPC SUV [8] [%] | % membrane-bound peptide T67 [9] [%] | percentage of peptide bound to cells [10]
1 | CCCCCCCC(=O)NC(C)(C)C(=O)NCC(=O)N[C@@H](CC(C)C)C(=O)NC(C)(C)C(=O)N[C@@H](CCCCN)C(=O)N[C@@H](CCCCN)C(=O)N[C@@H](CC(C)C)C(=O)NC(C)(C)C(=O)NCC(=O)N[C@H](C(=O)N[C@H](CO)CC(C)C)[C@@H](C)CC [[Lys^5,6] TG, Oct-UGLUKKLUGI-Lol] | remarkably increased activity | 5.15 | 4.82 | 5.00 |  |  |  |  |  | 
2 | CCCCCCCC(=O)NC1(C(=O)NCC(=O)N[C@@H](CC(C)C)C(=O)NC2(C(=O)NCC(=O)NCC(=O)N[C@@H](CC(C)C)C(=O)NC(C)(C)C(=O)NCC(=O)N[C@H](C(=O)N[C@H](CO)CC(C)C)[C@@H](C)CC)CCNCC2)CC(C)(C)N([O])C(C)(C)C1 [[TOAC^1, Api^4] TG, Oct-XGLZGGLUGI-Lol] (Octanoyl-[TOAC]GL[Api]GGL[Aib]GI[Leu(ol)]) |  |  | < 4.70 | < 4.70 | 21 | 28 | selective toxicity; also recorded: selective cytotoxicity towards a cancer cell line | >99 |  | 
3 | CCCCCCCC(=O)NC1(C(=O)NCC(=O)N[C@@H](CC(C)C)C(=O)NC(C)(C)C(=O)NCC(=O)NCC(=O)N[C@@H](CC(C)C)C(=O)NC(C)(C)C(=O)NCC(=O)N[C@H](C(=O)N[C@H](CO)CC(C)C)[C@@H](C)CC)CC(C)(C)N([O])C(C)(C)C1 [[TOAC^1] TG, Oct-XGLUGGLUGI-Lol] (Octanoyl-[TOAC]GL[Aib]GGL[Aib]GI[Leu(ol)]) |  | 6.00 | 5.30 | 5.52 | 78 | 84 |  | 100 | 85 | ~ 80%
